Results from patent publication US9375411B2, “Uses and methods for the treatment of liver diseases or conditions” (Verlyx Pharma Inc., priority 2012, dated 2016).
Counter-ions that a name gives are not always drawn.

Key:
[1] = system: GalN/LPS-induced liver injury; test: GalN/LPS fulminant liver injury survival study; format: in vivo; details: C57BL/6 mice; IP 30 minutes prior GalN/LPS; PENTAMIDINE 40 mpk, Decamidine 10 mpk
Description: In this experiment, the 8-hour survival rate for C57BL/6 mice is evaluated when treated or not with two different aromatic diamidines (pentamidine isethionate(C5) and decamidine isethionate (C10)). Both compounds were administered intraperitoneally at doses close to their MTD 30 minutes prior a GalN/LPS-induced liver injury.

[2] = Oral bioavailability and biodistribution of pentamidine salts; details: mice; for Tissue Concentration Kidney / Tissue Concentration Liver / Tissue Concentration Lung / Tissue Concentration Pancreas: 24 hours after PO 200 mg/kg; for Tissue Concentration Kidney / Tissue Concentration Liver / Tissue Concentration Lung / Tissue Concentration Pancreas / AUCINF / Cl/F / Cmax / MRT / Tmax / t½: 200 mg/kg; for F* / AUCINF / Cl/F / Cmax / MRT / Tmax / t½: oral 200 mg/kg; for F*: based on the iv AUC at 5 mg/kg of 19.08; for AUCINF / Cl/F / Cmax / MRT / Tmax / t½: blood
Description: In this experiment, HCl, isethionate and tosylate salts of pentamidine were administered orally to mice and their PK and tissue accumulations were compared.
PK parameters for pentamidine salt following oral administration of 200 mg/kg in mice.
Biodistribution of Pentamidine Salts in mice, 24 hours after PO administration of 200 mg/kg.

SMILES: N=C(N)c1ccc(OCCCCCCCCCCOc2ccc(C(=N)N)cc2)cc1 [Decamidine, decamidine isethionate]
- 8-hour survival [1]: 100%

SMILES: N=C(N)c1ccc(OCCCCCOc2ccc(C(=N)N)cc2)cc1 [HCl salt, pentamidine bis-HCl]
- Tissue Concentration Kidney ([2]; listed as Penta-HCL, bis-HCl): 156.3 µM
- Tissue Concentration Liver ([2]; listed as Penta-HCL, bis-HCl): 224.6 µM
- Tissue Concentration Lung ([2]; listed as Penta-HCL, bis-HCl): 43.4 µM
- Tissue Concentration Pancreas ([2]; listed as Penta-HCL, bis-HCl): 16.6 µM
- F* ([2]; bis-HCl): 20.7
- AUCINF ([2]; bis-HCl): 158.1 µM·h
- Cl/F ([2]; bis-HCl): 85 mL/min/kg
- Cmax ([2]; bis-HCl): 5240 nM
- MRT ([2]; bis-HCl): 136.0 h
- Tmax ([2]; bis-HCl): 2.67 h
- t½ ([2]; bis-HCl): 90.8 h

SMILES: N=C(N)c1ccc(OCCCCCOc2ccc(C(=N)N)cc2)cc1 [Tosylate salt, pentamidine tosylate]
- Tissue Concentration Kidney ([2]; listed as Penta-Tos): 1.9 µM
- Tissue Concentration Liver ([2]; listed as Penta-Tos): 4.1 µM
- Tissue Concentration Lung ([2]; listed as Penta-Tos): 0.5 µM
- Tissue Concentration Pancreas ([2]; listed as Penta-Tos): 0.5 µM
- F* [2]: 2.3
- AUCINF [2]: 17.8 µM·h
- Cl/F [2]: 440 mL/min/kg
- Cmax [2]: 430 nM
- MRT [2]: 86.0 h
- Tmax [2]: 6.67 h
- t½ [2]: 54.9 h
